According to patent US8679746B2, “Compositions and methods for predicting outcome of treatment” (Dako Denmark A/S, priority 2005, dated 2014):

Key:
breast cancer = details: in vivo; cited from earlier work
[1] = test system: metastatic head and neck cancer; experiment: 5-FU infusion in a patient with metastatic head and neck cancer; assay type: in vivo; details: one patient; 1000 mg/m^2 per 24 hours, 120 hours infusion; evaluated after one and a half month
Description: A patient with metastatic head and neck cancer was treated with 5-fluorouracil (5-FU) infusion at a dose of 1000 mg/m^2 per 24 hours. The total infusion time was 120 hours.

[2] = cited from earlier work

SMILES: COc1cccc2c1C(=O)c1c(O)c3c(c(O)c1C2=O)C[C@@](O)(C(=O)CO)C[C@@H]3O[C@H]1C[C@H](N)[C@@H](O)[C@H](C)O1 [epirubicin]
- reduction in overall survival on substitution of methotrexate in CMF with epirubicin (breast cancer): 25%

SMILES: O=c1[nH]cc(F)c(=O)[nH]1 [5-FU, 5-Fluorouracil]
- treatment response [1]: progressive disease

SMILES: CCCCCOC(=O)Nc1nc(=O)n([C@@H]2O[C@H](C)[C@@H](O)[C@H]2O)cc1F [capecitabine]
- higher concentrations in tumor tissue compared to plasma ([2]; tumor tissue vs plasma): 21 fold
- higher FU concentration in tumor compared to normal tissue ([2]; tumor vs normal tissue): 3.2 fold
